The target in assay [1] is Phosphatidylinositol 4,5-bisphosphate 3-kinase catalytic subunit gamma isoform (Homo sapiens, UniProt P48736). Put plainly: Inhibition of human PI3Kgamma expressed in Sf9 cells by fluorescent polarization assay.
In assay [2] the target is Phosphatidylinositol 4,5-bisphosphate 3-kinase catalytic subunit alpha isoform (Homo sapiens, UniProt P42336). Put plainly: Inhibition of human PI3Kalpha expressed in Sf9 cells by fluorescent polarization assay.
The next assay is filed under the species Homo sapiens. Put plainly: Selectivity for human PI3Kalpha over human PI3Kgamma.

A value given as a limit tells only on which side of the number the result lay.

The values that follow come from ChEMBL document CHEMBL1629458, “Synthesis of phosphatidylinositol 3-kinase (PI3K) inhibitory analogues of the sponge meroterpenoid liphagal” (J Med Chem, 2010).

Sequence of Phosphatidylinositol 4,5-bisphosphate 3-kinase catalytic subunit gamma isoform (P48736 whole entry, canonical isoform): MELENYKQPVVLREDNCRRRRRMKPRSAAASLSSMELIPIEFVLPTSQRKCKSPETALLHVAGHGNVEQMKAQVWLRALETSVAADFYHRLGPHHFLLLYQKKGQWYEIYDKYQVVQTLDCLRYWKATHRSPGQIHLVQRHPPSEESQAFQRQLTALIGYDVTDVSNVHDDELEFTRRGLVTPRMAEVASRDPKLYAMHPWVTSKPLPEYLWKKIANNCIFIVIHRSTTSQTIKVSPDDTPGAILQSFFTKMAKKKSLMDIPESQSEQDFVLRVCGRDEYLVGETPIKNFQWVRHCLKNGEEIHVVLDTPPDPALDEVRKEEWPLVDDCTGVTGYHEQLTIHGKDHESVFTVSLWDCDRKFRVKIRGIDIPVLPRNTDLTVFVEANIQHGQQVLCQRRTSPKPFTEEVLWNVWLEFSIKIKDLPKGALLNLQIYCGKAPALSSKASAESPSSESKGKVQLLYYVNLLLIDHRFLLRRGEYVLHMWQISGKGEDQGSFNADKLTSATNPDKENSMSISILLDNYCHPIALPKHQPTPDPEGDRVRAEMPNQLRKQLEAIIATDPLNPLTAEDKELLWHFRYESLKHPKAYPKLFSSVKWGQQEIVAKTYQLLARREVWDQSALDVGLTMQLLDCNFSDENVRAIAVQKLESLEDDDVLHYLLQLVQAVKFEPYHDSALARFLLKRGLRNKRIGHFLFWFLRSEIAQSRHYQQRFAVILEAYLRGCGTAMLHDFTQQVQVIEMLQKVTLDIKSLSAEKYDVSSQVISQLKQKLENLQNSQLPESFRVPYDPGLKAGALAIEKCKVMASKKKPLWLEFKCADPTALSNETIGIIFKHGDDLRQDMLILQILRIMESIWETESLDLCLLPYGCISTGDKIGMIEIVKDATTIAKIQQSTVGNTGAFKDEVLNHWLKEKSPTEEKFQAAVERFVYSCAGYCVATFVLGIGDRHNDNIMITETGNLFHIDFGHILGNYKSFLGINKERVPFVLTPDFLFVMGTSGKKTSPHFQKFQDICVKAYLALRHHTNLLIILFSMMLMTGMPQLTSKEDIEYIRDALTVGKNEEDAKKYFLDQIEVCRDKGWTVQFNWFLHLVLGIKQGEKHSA
Sequence of Phosphatidylinositol 4,5-bisphosphate 3-kinase catalytic subunit alpha isoform (P42336 whole entry, canonical isoform): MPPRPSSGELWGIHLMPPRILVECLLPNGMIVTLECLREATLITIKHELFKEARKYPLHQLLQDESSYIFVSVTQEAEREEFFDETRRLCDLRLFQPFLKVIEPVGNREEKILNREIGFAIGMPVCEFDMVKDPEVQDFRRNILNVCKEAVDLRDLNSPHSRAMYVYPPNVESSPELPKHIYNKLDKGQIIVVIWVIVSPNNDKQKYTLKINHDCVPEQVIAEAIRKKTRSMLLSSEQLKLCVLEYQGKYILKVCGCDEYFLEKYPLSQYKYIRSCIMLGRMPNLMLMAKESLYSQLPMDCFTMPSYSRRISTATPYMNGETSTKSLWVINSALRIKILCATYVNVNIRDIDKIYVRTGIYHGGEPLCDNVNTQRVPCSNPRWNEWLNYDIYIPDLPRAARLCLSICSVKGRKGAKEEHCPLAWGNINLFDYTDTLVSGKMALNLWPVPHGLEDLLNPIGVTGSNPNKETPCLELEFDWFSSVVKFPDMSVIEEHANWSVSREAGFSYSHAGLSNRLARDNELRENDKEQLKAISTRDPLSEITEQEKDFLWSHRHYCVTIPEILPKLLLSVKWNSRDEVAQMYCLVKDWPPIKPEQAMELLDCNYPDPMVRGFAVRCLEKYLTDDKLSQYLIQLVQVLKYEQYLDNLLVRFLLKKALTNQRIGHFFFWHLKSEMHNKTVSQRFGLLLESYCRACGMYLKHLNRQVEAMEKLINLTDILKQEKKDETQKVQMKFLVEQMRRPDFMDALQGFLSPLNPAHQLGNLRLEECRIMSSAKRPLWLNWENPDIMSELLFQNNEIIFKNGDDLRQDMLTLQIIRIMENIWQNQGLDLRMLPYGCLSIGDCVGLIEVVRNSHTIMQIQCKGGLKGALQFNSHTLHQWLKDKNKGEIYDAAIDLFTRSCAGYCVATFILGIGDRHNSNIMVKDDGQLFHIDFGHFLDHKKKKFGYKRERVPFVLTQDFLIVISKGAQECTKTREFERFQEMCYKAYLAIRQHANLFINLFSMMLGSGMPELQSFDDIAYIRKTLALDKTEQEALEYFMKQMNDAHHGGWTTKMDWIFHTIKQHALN

`COc1cc2c3c(oc2c(C=O)c1OC)CC[C@H]1C(C)(C)CCC[C@]31C` (racemic): the IC50 (in general, the midpoint of a concentration-inhibition curve) amounted to 2.64 µM in assay [1] and 5.12 µM in assay [2].
As to `COc1cc2c3c(oc2c(C=O)c1O)CC[C@H]1C(C)(C)CCC[C@]31C` (racemic), the IC50 came to 5.15 µM in assay [1] and 1 µM in assay [2].
For `C[C@@H]1CC[C@H]2C(C)(C)CCC[C@]2(C)c2c1oc1ccc(O)cc21`, the IC50 was 1.9 µM in assay [1] and 7.2 µM in assay [2].
For `C[C@@H]1CCCC(C)(C)C12CC[C@H](C)c1oc3c(Br)c(O)c(O)cc3c12` (mixture of isomers), the Ratio IC50 in the assay filed under Homo sapiens turned out to be 7. The IC50 was determined as 5.3 µM in assay [1] and 0.7 µM in assay [2].
Turning to `CC1(C)CCC[C@]2(C)c3c(oc4c(C(N)=O)c(O)c(O)cc34)CC[C@@H]12` (racemic), the IC50 in assay [1] was found to be 1.4 µM; in assay [2], 0.7 µM.
Turning to `C[C@H]1CC[C@H]2C(C)(C)CCC[C@]2(C)c2c1oc1cc(O)ccc21`, the IC50 in assay [1] and in assay [2] was 2.2 µM each time.
As for `C[C@@H]1CC[C@H]2C(C)(C)CCC[C@]2(C)C2=C3C=C(O)C(=O)C(Br)=C3OC21O` (stereo partly drawn), the IC50 is over 10 µM in assay [1] and 3.3 µM in assay [2].
Consider `CC1(C)CCC[C@]2(C)C3=C4C=C(O)C(=O)C=C4OC3(O)CC[C@@H]12` (mixture of isomers), for which the IC50 amounted to 9.57 µM in assay [1] and 1.65 µM in assay [2].
Regarding `CC1(C)CCC[C@]2(C)c3c(oc4c(C=O)c(O)c(O)cc34)CC[C@@H]12` (racemic), the Ratio IC50 in the assay filed under Homo sapiens worked out at 27. The IC50 came to 1.8 µM in assay [1] and 0.066 µM in assay [2].
Consider `COc1ccc2c3c(oc2c1Br)[C@H](C)CC[C@H]1C(C)(C)CCC[C@]31C`, for which the IC50 in assay [1] and in assay [2] was over 10 µM each time.
For `C[C@@H]1CC[C@H]2C(C)(C)CCC[C@]2(C)c2c1oc1c(Br)c(O)ccc21`, the figures for the IC50 in assay [1] and in assay [2] were 5.7 µM and 10.2 µM, respectively.
Turning to `C[C@@H]1CC[C@H]2C(C)(C)CCC[C@]2(C)c2c1oc1cc(O)ccc21`, the IC50 in assay [1] and in assay [2] was over 10 µM each time.
With `C[C@@H]1CC[C@H]2C(C)(C)CCC[C@]2(C)c2c1oc1c(C=O)c(O)c(O)cc21`, the IC50 in assay [1] came out at 1 µM; in assay [2], 0.1 µM.
